Measured values from publication PMC7765098, “Non-Steroidal Anti-Inflammatory Drugs Increase Cisplatin, Paclitaxel, and Doxorubicin Efficacy against Human Cervix Cancer Cells” (Pharmaceuticals, 2020).
Like-named read-outs stand apart in the source and are kept apart here. Values belong to the compound of their own block, whether it stands above or below them.

How the values were obtained:
HeLa MCTS = assay: HeLa multi-cellular tumor spheroid (MCTS) growth, preventive and curative protocols; type: cell-based, human
Method: HeLa, SiHa, and U373 (1 × 10^5 cells/mL) were seeded onto 2% (w/v) agarose-coated culture dishes in 5 mL DMEM. […] The growth of each MCTS was analyzed by fitting data to a logistic function for exponential growth using the Origin 8 software (Northampton MA, USA).
(§1) The combination effect of NSAIDs and chemotherapy drugs on proliferation was also analyzed by determining the resistance index ratio (RI) and the combination index (CI) value.

[1] = test system: MCF-10A mammary gland cells; assay: Bidimensional MCF-10A cell proliferation (MTT assay); type: cell-based, human; conditions: read-out: IC50, bidimensional MCF-10A cell growth
Method: (§2) For cellular proliferation with and without drugs, the cell lines (20 × 10^3 cells/well) were grown as bidimensional in 96-well plates containing Dulbecco’s Modified Eagle’s Medium (DMEM) (Sigma-Aldrich) for 24 h.

HeLa cells [2] = assay: Bidimensional HeLa cell proliferation (MTT assay), drugs alone or combined; type: cell-based, human; conditions: for IC50: read-out: IC50, bidimensional HeLa cell growth; for decrement of the IC50 value: bidimensional HeLa, presence of either NSAID (celecoxib or DMC) vs monotherapy
Method: as §2, §1

3T3 fibroblasts = assay: Bidimensional 3T3 fibroblast proliferation (MTT assay); type: cell-based, mouse; conditions: read-out: IC50, bidimensional 3T3 cell growth
Method: as §2, §1

[3] = test system: OxPhos flux in HeLa cells; conditions: vs. non-treated cells; cited from earlier work
HFF1 fibroblasts = assay: Bidimensional HFF1 fibroblast proliferation (MTT assay); type: cell-based; conditions: read-out: IC50, bidimensional HFF1 cell growth
Method: as §2

[4] = test system: OxPhos flux in HeLa cells; assay: OxPhos flux (oligomycin-sensitive oxygen consumption) in HeLa cells; type: cell-based, human; conditions: for OxPhos flux decrease: 5 µM celecoxib, 2 µM cisplatin, 15 µM paclitaxel, 24 h exposure; for OxPhos (mitochondrial flux) decrease, summary in Discussion: celecoxib or DMC alone, or combined with chemotherapy drugs
Method: For total oxygen consumption and OxPhos fluxes, HeLa, SiHa, or U373 cells or 3T3 fibroblasts (1 mg protein/mL), cultured for 24 h with the indicated drugs, were harvested and further incubated at 37 °C in air-saturated KR buffer and under constant agitation.

HeLa cells [5] = assay: Cell invasiveness assay (Boyden chamber), HeLa; type: cell-based, human; conditions: celecoxib (5 µM), paclitaxel (15 µM), cisplatin (2 µM), alone or combined, 24 h
Method: The lower compartment was filled with serum-free DMEM. After 24 h at 37 °C, the invasive cells found in the lower compartment were loaded with 60 nM calcein AM (acetomethylester) for 60 min.

[6] = test system: glycolysis flux in HeLa cells; assay: Glycolytic flux (lactate production) in HeLa cells; type: cell-based, human; conditions: 5 µM celecoxib, 2 µM cisplatin, 15 µM paclitaxel, alone; 24 h exposure
Method: Glycolysis was started by adding 5 mM glucose (Sigma-Aldrich). Cellular samples were collected after 0 and 10 min of incubation, swiftly mixed with 30% (w/v) of cold perchloric acid, and centrifuged at 3500 rpm for 5 min. Supernatants were neutralized with 1N KOH/100 mM Tris. Cells were also incubated with 2-deoxyglucose (2-DG, 20 mM) (Sigma-Aldrich) to prevent lactate production by glycogen degradation. Lactate production was determined by the lactate dehydrogenase (Roche, Mannheim, Germany) coupled assay registering the NADH formation at 340 nm.

COX-2 = conditions: at 100 µM; cited from earlier work
[7] = drug alone, added at the beginning of culture, determined at day 20 of growth, read-out: IC50, tridimensional HeLa MCTS, Preventive
[8] = drug alone, added once spheroids were formed (day 10), determined at day 20 of growth, read-out: IC50, tridimensional HeLa MCTS, Curative
[9] = drug alone, 24 h of drug exposure, non-cancer
[10] = drug alone, 24 h of drug exposure
[11] = Homo sapiens, HeLa, 480 h, read-out: IC50, tridimensional HeLa MCTS, Preventive
[12] = Homo sapiens, HeLa, read-out: IC50, tridimensional HeLa MCTS, Curative
[13] = Homo sapiens, MCF-10A, drug alone, 24 h of drug exposure, non-cancer
[14] = Homo sapiens, HeLa, drug alone, 24 h of drug exposure
[15] = Homo sapiens, HeLa, 480 h, drug alone, added at the beginning of culture, determined at day 20 of growth, read-out: IC50, tridimensional HeLa MCTS, Preventive
[16] = Homo sapiens, HeLa, drug alone, added once spheroids were formed (day 10), determined at day 20 of growth, read-out: IC50, tridimensional HeLa MCTS, Curative
[17] = Homo sapiens, HFF-1, drug alone, 24 h of drug exposure, non-cancer
[18] = Mus musculus, NIH3T3, drug alone, 24 h of drug exposure, non-cancer

Compound: N.N.O=C([O-])C1(C(=O)[O-])CCC1.[Pt+2] [Carboplatin, carboplatin]
IC50 (HeLa MCTS; [7]): 0.165 ± 0.028 µM
IC50 (HeLa MCTS; [8]): 287 ± 43 µM
IC50 [1, 9]: > 1000 µM
IC50, bidimensional HeLa cell growth (HeLa cells [2]; [10]): in the mM range
IC50 (HeLa cells [2]; [10]): 1000 ± 400 µM
IC50 (3T3 fibroblasts; [9]): > 5000 µM

Compound: Cc1ccc(-c2cc(C(F)(F)F)nn2-c2ccc(S(N)(=O)=O)cc2)cc1 [Celecoxib, celecoxib]
OxPhos and mitochondrial membrane potential affected [3]: 50–80%
decrease of chemotherapy drug IC50 values (HeLa MCTS; HeLa MCTS, both preventive and curative protocols): > 70%
IC50 (HeLa MCTS; [11]): 0.001 ± 0.0003 µM
IC50 (HeLa MCTS; [12]): 7.5 ± 2 µM
IC50 [1, 13]: > 100 µM
IC50 (HFF1 fibroblasts; Homo sapiens, HFF-1, 24 h): 96 ± 13 µM
OxPhos flux decrease ([4]; alone or in combination): 36–50%
OxPhos (mitochondrial flux) decrease, summary in Discussion [4]: 50–60%
decrease of invasiveness potential (HeLa cells [5]): did not alter
IC50 (HeLa cells [2]; [14]): 55 ± 9 µM
glycolysis decrease [6]: 36–50%
IC50 (3T3 fibroblasts; Mus musculus, NIH3T3, 24 h): 119 ± 7 µM

Compound: N.N.[Cl][Pt][Cl] [Cisplatin, cisplatin]
IC50 (HeLa MCTS; [7]): 0.05 ± 0.017 µM
IC50 (HeLa MCTS; [8]): 270 ± 20 µM
IC50 [1, 9]: 82 ± 4 µM
IC50 (HFF1 fibroblasts; [9]): 59 ± 26 µM
OxPhos flux decrease ([4]; alone or in combination): did not significantly affect
decrease of invasiveness potential (HeLa cells [5]): did not alter
decrement of the IC50 value (HeLa cells [2]): 38–66%
IC50 (HeLa cells [2]; [10]): 15 ± 3 µM
glycolysis decrease [6]: 40–60%

Compound: O=P1(N(CCCl)CCCl)NCCCO1 (stereo not shown) [Cyclophosphamide, cyclophosphamide]
IC50 (HeLa MCTS; [11]): 0.136 ± 0.087 µM
IC50 (HeLa MCTS; [12]): 315 ± 30 µM
IC50 ([1]; Homo sapiens, MCF-10A, 24 h): 102 ± 35 µM
IC50 (HeLa cells [2]; Homo sapiens, HeLa, 24 h): 16 ± 3 µM
IC50 (3T3 fibroblasts; Mus musculus, NIH3T3, 24 h): > 1000 µM

Compound: Cc1ccc(C)c(-c2cc(C(F)(F)F)nn2-c2ccc(S(N)(=O)=O)cc2)c1 [DMC, 2,5-dimethylcelecoxib]
lowering of cisplatin and paclitaxel IC50 values (HeLa MCTS; HeLa MCTS curative protocol): 45–73%
lowering of cisplatin and paclitaxel IC50 values (HeLa MCTS; HeLa MCTS preventive protocol): 52–55%
IC50 (HeLa MCTS; [15]): 0.01 ± 0.002 µM
IC50 (HeLa MCTS; [16]): 32 ± 10 µM
IC50 [1, 13]: > 100 µM
IC50 (HFF1 fibroblasts; [17]): 44 ± 11 µM
inhibition at 15 µM ([4]; Homo sapiens, HeLa, DMC (15 µM), paclitaxel (20 µM), cisplatin (5 µM), alone or in combination, 24 h, n=1 (Figure S3)): 60%
OxPhos (mitochondrial flux) decrease, summary in Discussion [4]: 50–60%
COX-2 activity blocked (COX-2): 15%
IC50 (HeLa cells [2]; [14]): 48 ± 2 µM
IC50 (3T3 fibroblasts; [18]): 69 ± 8.5 µM

Compound: COc1cccc2c1C(=O)c1c(O)c3c(c(O)c1C2=O)C[C@@](O)(C(=O)CO)C[C@@H]3O[C@H]1C[C@H](N)[C@H](O)[C@H](C)O1 [Doxorubicin, doxorubicin]
IC50 (HeLa MCTS; [15]): 0.048 ± 0.007 µM
IC50 (HeLa MCTS; [16]): 86 ± 5 µM
IC50 [1, 13]: 82 ± 25 µM
IC50 (HFF1 fibroblasts; [17]): 65 ± 19 µM
IC50 (HeLa cells [2]; [14]): 26 ± 6 µM
decrement of the IC50 value (HeLa cells [2]): 38–66%
IC50 (3T3 fibroblasts; [18]): 51 ± 18 µM

Compound: Casiopeina II-gly [CasII-gly]
increase of cisplatin toxicity (decrease of cisplatin IC50) (HeLa MCTS; HeLa MCTS): 84–96%
IC50 (HeLa MCTS; [7]): 0.03 ± 0.0075 µM
IC50 (HeLa MCTS; [8]): 106 ± 2 µM
decrease of IC50 values of cisplatin, paclitaxel, and doxorubicin (HeLa MCTS; tridimensional HeLa cultures): 62–96%
IC50 [1, 9]: 17 ± 3 µM
decrease of IC50 values of cisplatin, paclitaxel, and doxorubicin (HeLa cells [2]; bidimensional HeLa cultures, co-added drug vs monotherapy): 19–54%
IC50 (HeLa cells [2]; [10]): 1.5 ± 0.9 µM
IC50 (3T3 fibroblasts; [9]): 9 ± 2 µM

Now from value to compound, other results behind:

IC50 (HeLa MCTS; [15]): 0.065 ± 0.017 µM
IC50 (HeLa MCTS; [16]): 128 ± 20 µM
IC50 (HeLa cells [2]; [14]): 30 ± 5 µM
Compound: Nc1ccn([C@@H]2O[C@H](CO)[C@@H](O)C2(F)F)c(=O)n1 [Gemcitabine, gemcitabine]
IC50 [1, 13]: > 1000 µM
IC50 (3T3 fibroblasts; [18]): > 2000 µM

IC50 (HeLa MCTS; [15]): 0.016 ± 0.005 µM
IC50 (HeLa MCTS; [16]): 26.5 ± 0.1 µM
IC50 (HeLa cells [2]; [14]): 21 ± 4 µM
Compound: CC(=O)O[C@H]1C(=O)[C@@]2(C)[C@H]([C@H](OC(=O)c3ccccc3)[C@]3(O)C[C@H](OC(=O)[C@H](O)[C@@H](NC(=O)c4ccccc4)c4ccccc4)C(C)=C1C3(C)C)[C@]1(OC(C)=O)CO[C@@H]1C[C@@H]2O [Paclitaxel]
IC50 [1, 13]: 100 ± 18 µM
IC50 (HFF1 fibroblasts; [17]): 68 ± 30 µM
OxPhos flux decrease ([4]; alone or in combination): did not significantly affect
decrease of invasiveness potential (HeLa cells [5]): did not alter
glycolysis decrease [6]: 40–60%
IC50 (3T3 fibroblasts; [18]): 80 ± 12 µM

IC50 (HeLa MCTS; [15]): 0.025 ± 0.006 µM
IC50 (HeLa MCTS; [16]): 30 ± 2 µM
IC50 (HeLa cells [2]; [14]): 4.7 ± 0.7 µM
Compound: Cc1c(C)c2c(c(C)c1OCC(=O)O)CC[C@@](C)(CCC[C@H](C)CCC[C@H](C)CCCC(C)C)O2 [α-TEA, α-tocopherol ether linked acetic acid analog]

IC50 (HeLa MCTS; [7]): 0.01 ± 0.004 µM
IC50 (HeLa MCTS; [8]): 50 ± 11 µM
IC50 (HeLa cells [2]; [10]): 1.2 ± 0.46 µM
Compound: Cc1c(C)c2c(c(C)c1OC(=O)CCC(=O)O)CC[C@@](C)(CCC[C@H](C)CCC[C@H](C)CCCC(C)C)O2 [α-TOS, α-tocopheryl succinate]

IC50 (HeLa cells [2]; [10]): 1.2 ± 0.48 µM
Compound: methoxy-tocopheryl oxyacetic acid [M-TEA]
